Each structure is given as a SMILES string.

With `OCc1ccc2c(c1)C1(c3ccccc3-2)c2ccccc2-c2ccc(CO)cc21`, the melting point – broadly, the temperature, or range, at which the solid turns liquid – is 254 to 255 °C.

Take `Cc1nn2c(=O)c(CCCl)c(C)nc2s1`: the melting point amounted to 118 °C.

`O=C(c1ccc([N+](=O)[O-])cc1)N1CCCCc2ccccc21` returned a melting point of 148 to 150 °C.

As for `Cc1ccc(S(=O)(=O)n2c(I)cc3c(Br)ccnc32)cc1`, the melting point is 140 to 143 °C.

In turn, `CCOCn1c(C(F)(F)F)c(C#N)c2ccc(Cl)c(Cl)c21` displayed a melting point of 122 to 127 °C.

In turn, `CC(=O)NC1(C)CCCc2nc(OCc3ccccc3)ccc21` (stereo not given) gave a melting point of 153 to 154 °C.

Compound `CC(C)(C)OCCOc1cc(NC(=O)OC(C)(C)C)c([N+](=O)[O-])cc1I` displayed a melting point of 113 to 116 °C.

Compound `O=C(C1CC1)N1CC[C@@H](Oc2ccc(F)cc2)[C@H](c2ccccc2)C1` (relative stereo) came in with a melting point of 113 to 115 °C.

For `Clc1cccc(-c2ccc3cnc(Nc4ccc(N5CCOCC5)nc4)nn23)c1`, the melting point fell in the range of 221 to 222 °C.

In the case of `CN(C)C=Nc1c(Cl)cc(N=Cc2cccc(F)c2)cc1Cl`, the melting point fell in the range of 95 to 96 °C.

Regarding `C#CCOc1ccc2c(Cl)nnc(C)c2c1`, the melting point lay within 178 to 180 °C.

For the compound `COc1cc(OCc2cccnc2)ccc1/C=C/c1cc(/C=C/c2c[nH]c3ccccc23)n[nH]1`, the melting point fell in the range of 129 to 137 °C.

Regarding `CC(=O)NC1=NN(c2ccc(Cl)cc2)CC1`, the melting point was in the range of 171 to 173 °C.

Compound `CC(C)CC(Sc1c(Cl)cccc1Cl)c1c(O)cc(-c2ccccc2)oc1=O` (stereo not given) gave a melting point of 158 to 162 °C.

Turning to `CC(C)(O)Cn1cnc2c(Cl)nc3ccccc3c21`, the melting point fell in the range of 196 to 199 °C.

With `CCCCCCCCOc1cc(CBr)c(OCCCCCCCC)cc1CBr`, the melting point was 83 °C.

In the case of `Nc1ccc2c(c1N)CN(Cc1ccc(C(F)(F)F)cc1)CC2`, the melting point was 130 to 135 °C.

`CC(=O)Oc1ccccc1-c1ccc(=O)[nH]n1` came in with a melting point of 181 to 184 °C.

In turn, `NS(=O)(=O)OCCOc1cccc(Cl)c1` gave a melting point of 66 to 69 °C.

Take `CS(=O)(=O)c1ccc(-c2ccc(C=C(Cl)Cl)s2)cc1`: the melting point lay within 143 to 145 °C.

On to `Cc1ccccc1NC1(C#N)CCN(C(=O)c2cc(C(F)(F)F)cc(C(F)(F)F)c2)CC1`, for which the melting point is 141 to 142 °C.

Compound `O=C1N(Cc2csc(-c3ccc(C(F)(F)F)cc3)n2)c2ccccc2C12COc1cc3c(cc12)OCO3` (stereo not given) had a melting point of 151 to 153 °C.

In turn, `CCNc1ccc2nc(Cl)c(S(N)(=O)=O)n2n1` displayed a melting point of 218 to 220 °C.

With `Cc1cnc2c(Cl)cnn2c1-c1cccc(C(F)(F)F)c1`, the melting point was 195 to 197 °C.

For the compound `Cc1cc(O)n2nc(S(=O)(=O)Nc3c(Cl)ccc(C)c3Cl)nc2n1`, the melting point was in the range of 346 to 347 °C.

`CC(=O)Nc1cccc(-c2nn3cnnc3cc2C)c1`: the melting point fell in the range of 298 to 301 °C.

As to `COC(=O)Nc1cccc(C)c1CNc1cccn2c(C)c(C)nc12`, the melting point was 136 to 138 °C.

`O=C(Nc1cc2ccccc2cn1)c1nccnc1NCc1ccncc1`: the melting point came out at 139 °C.

For the compound `CCOC(=O)c1ccc(CCN2CCN(S(=O)(=O)c3ccccc3)CC2)cc1`, the melting point fell in the range of 156 to 157 °C.

As to `O=C(N1CCCCC12CCc1ccccc1C2=O)C(F)(F)F` (stereo not given), the melting point lay within 97 to 100 °C.

With `O=C(O)COc1cccc2c(CCS(=O)(=O)C(c3ccccc3)c3ccccc3)coc12`, the melting point lay in the range of 177 to 179 °C.

In turn, `CC(C)(C)NS(=O)(=O)c1ccc([Si](C)(C)C)s1` returned a melting point of 102 to 104 °C.

`CNC(=O)c1cc(C)ccc1NC(=O)c1ccc(O)cc1`: the melting point was in the range of 250 to 252 °C.

Take `N#Cc1nn(-c2ccc(S(N)(=O)=O)cc2)c2c1CSc1ccccc1-2`: the melting point was in the range of 211 to 213 °C.

As to `CN1CC(C(C#N)(c2ccccc2)c2ccccc2)C1`, the melting point was 113 to 115 °C.

As to `C[C@@H]1NC(=O)C[C@@]1(O)C1CC1`, the melting point is 133 to 140 °C.

Take `CCP(=O)(O)c1cc(Oc2ccc(C(F)(F)F)cc2Cl)ccc1[N+](=O)[O-]`: the melting point is 99 °C.

With `CCOC(=O)c1ccc(-c2cccc(CN)n2)cc1`, the melting point lay within 141 to 143 °C.

`Cc1cc(-n2c(Cl)cnc2C)cc2ccc(=O)[nH]c12`: the melting point was in the range of 258 to 261 °C.

As to `Cc1cc(C2C(=O)Oc3c2cc(C(C)(C)C)cc3C(C)(C)C)cc(C)c1OC(=O)C(C)(C)C` (stereo not given), the melting point is 140 to 142 °C.

Regarding `O=C(Nc1nc(=O)c2cnn3c2n1CC=C3c1cccc(C(F)(F)F)c1)c1ccccc1`, the melting point is 235 to 239 °C.

In turn, `Cc1cc(CCCCCOc2cc(Cl)c(-c3nnco3)c(Cl)c2)on1` gave a melting point of 73 to 74 °C.

`CCCc1c(CSc2nnc(NC(=O)CCC(=O)OCC)s2)ccc(C(C)=O)c1O`: the melting point amounted to 166 °C.

`Cc1ccc(N=C2NCCN2)cc1NS(C)(=O)=O` yielded a melting point of 124 to 126 °C.

Compound `COC(=O)c1ncnn1Cc1ccc([N+](=O)[O-])cc1` yielded a melting point of 126 to 130 °C.

With `N#Cc1cc(=O)c2ccc(CBr)cc2o1`, the melting point lay within 162 to 166 °C.

Take `O=CC(CC(=O)O)NC(=O)[C@@H]1CCCN1C(=O)c1nc(CCc2ccccc2)c[nH]1` (stereo not given in full): the melting point is 102 to 104 °C.

`Cc1cc2[nH]c(=O)c(C(=O)O)c(-c3ccccc3C)c2cc1C` had a melting point of 236 to 237 °C.

In turn, `Cc1c(-c2ccncc2)[nH]c(-c2ccncc2)c1C(N)=O` had a melting point of 212 to 215 °C.

`CCOc1ccc(F)cc1NC(=O)Nc1ccc(N2CCN(C(=O)OC(C)(C)C)CC2)cc1` yielded a melting point of 168 to 169 °C.

The compound `Nc1nonc1-c1nc2ccccc2n1CC(=O)C=Cc1ccccc1` had a melting point of 176 to 180 °C.

`CCCCCCCCCCCCCCCC(CC)OCC(=O)c1ccccc1` (stereo not given) yielded a melting point of 50 to 52 °C.

Compound `O=C(O)Cn1c(=S)c2ccccc2n(Cc2ccc(Cl)c(Cl)c2)c1=O` had a melting point of 237 to 238 °C.

`CC1(CN2CCC(OCc3ccc(Cl)cc3)CC2)Cn2cc([N+](=O)[O-])nc2O1` (stereo not given): the melting point was 129 to 130 °C.

As to `Fc1ccc2nc(-c3ccccc3)cc(Cl)c2c1`, the melting point was in the range of 96 to 99 °C.

For `COC(=O)C(C)(C)N1CCC(N(Cc2ccc(-c3ccc(C(F)(F)F)cc3)cc2)C(=O)Cn2c(CCc3cccc(F)c3F)nc(=O)c3cccnc32)CC1`, the melting point worked out at 150 °C.

On to `N#CCCOc1cccc(OCCC#N)c1`, for which the melting point is 109 to 110 °C.

In the case of `CCOC(=O)C(CC(=O)c1cc(F)ccc1OC)(NC(C)=O)C(=O)OCC`, the melting point fell in the range of 123 to 124 °C.

The compound `COc1ccc(-c2cc3cc(OC)cc(C=NO)c3o2)cc1` gave a melting point of 185 to 187 °C.

`CS(=O)(=O)c1ccc(-c2nn3c4c(oc3c2-c2ccc(F)cc2)CSCC4)cc1` registered a melting point of 178 to 180 °C.

With `COc1ccc(CC(=O)c2ccc(OC)c(F)c2)cc1F`, the melting point was in the range of 151 to 152 °C.

As to `CCc1nc2c(C)nc(C)cc2n1-c1ccc(CCOC(=O)NS(=O)(=O)c2ccc(C)cc2)cc1`, the melting point was determined as 158 °C.

Compound `O=C(O)CCC/C=C/c1ccc2ccccc2n1` came in with a melting point of 142 to 144 °C.

Regarding `COc1ccccc1-n1c(=O)[nH]c2c(C(N)=O)nc(-c3ccc(C(N)=O)cc3)nc21`, the melting point is greater than 350 °C.

As for `CC(=O)N1CCC(n2c(=O)[nH]c3ccccc32)CC1`, the melting point was in the range of 212 to 214 °C.

Take `O=C1c2ccccc2C(=O)N1Cc1ccc(C2=COC(c3cc(Cl)cc(Cl)c3)(C(F)(F)F)C2)cc1Cl` (stereo not given): the melting point came out at 99.7 °C.

Compound `CCc1nc2cc(C(=O)O)c(Cl)cc2n1-c1ccc(CCNC(=O)NS(=O)(=O)c2ccc(C)cc2)cc1` displayed a melting point of 145 to 150 °C.

In turn, `O=c1[nH]c2cc3[nH]c(-c4ccnnc4)nc3cc2o1` registered a melting point of 330 °C.

As to `O=CNC1Cc2cccc3c2N(CCC3)C1=O` (stereo not given), the melting point was in the range of 140 to 143 °C.

The compound `c1ccc(N=C2SCS2)nc1` registered a melting point of 98.7 to 99.7 °C.

In the case of `N=C(N)Nc1cc(Cl)ccc1N1CCOCC1`, the melting point lay in the range of 135 to 138 °C.

The compound `Cc1nsc(CCCOc2c(C)cc(-c3noc(C(F)F)n3)cc2C)n1` returned a melting point of 62 to 64 °C.

The compound `O=C(O)CC1Cc2ccccc2C1` came in with a melting point of 85 to 88 °C.

The compound `CC(C)(O)c1ccc(-c2ccc(C(CC3CCOCC3)c3ccc(S(=O)(=O)C4CC4)cc3)[nH]2)nc1` (stereo not given) yielded a melting point of 112 to 114 °C.

The compound `OC(CCl)COc1cccc2sncc12` (stereo not given) gave a melting point of 104 to 106 °C.

On to `N#Cc1c(Cl)c[nH]c1-c1ccc(Cl)cc1`, for which the melting point was 251 to 254 °C.

Take `COc1ccc2c(c1)sc1nc(C=O)cn12`: the melting point lay in the range of 214 to 215 °C.

In turn, `c1ccc(-c2cnc3ccccc3n2)cc1` yielded a melting point of 77 °C.

Turning to `CC1Cc2c(N3CCN(C)CC3)c(F)c(N)c3c(=O)c(C(=O)O)cn1c23` (stereo not given), the melting point fell in the range of 240 to 243 °C.

Take `COC1(C[N+](=O)[O-])OC(=O)c2cc(C)c(C)cc21` (stereo not given): the melting point lay in the range of 147 to 150 °C.

`Cc1nccn1-c1cccc(C2=Nc3ccc(-c4ccccc4F)cc3NC(=O)C2)c1` came in with a melting point of 187 °C.

In the case of `CCCCCCCCCCCCCCCCCCNC(=O)OCCN1CCCC1`, the melting point was 57 °C.

In the case of `CC(C)c1cc(C(=O)Nc2ccc(CCC(=O)O)cc2)oc1C(C)C`, the melting point was 139 to 141 °C.

`CCc1sc2c(c1S(=O)(=O)c1ccc(O)cc1)CN(Cc1ccccc1Cl)CC2` registered a melting point of 176 °C.

Take `CC(=O)c1ccc(C(=O)N2Cc3cccn3Cc3ccccc32)c(Cl)c1`: the melting point is 98 to 100 °C.

Consider `Cc1nc(NC(=O)c2cccc(C#N)c2)sc1C(=O)NCc1ccccc1`, for which the melting point is 207 to 208 °C.

Compound `N#Cc1c(N2CCCC2)cc(-c2ccc(Cl)cc2)c2c1Cc1ccccc1-2` gave a melting point of 197 to 199 °C.

`CCCOCCOc1ccc(Oc2ccc3c(c2)C=C(C(=O)O)CCS3(=O)=O)cc1OCC` came in with a melting point of 116 to 118 °C.

Compound `Nc1cc(C#Cc2ccccc2)c(-c2cc([N+](=O)[O-])c(N)cc2C#Cc2ccccc2)cc1[N+](=O)[O-]` gave a melting point of 252 to 253 °C.

As for `COc1ccc(SC2(CCCC#Cc3ccc(Cl)cc3)SC(=O)NC2=O)cc1` (stereo not given), the melting point lay within 106 to 109 °C.

Source of the values: a melting point compilation (Tetko et al.; mined from patent text by program, amines drawn as free bases though some values may be those of a salt).
